# Data from patent US10344002B2, “Compositions and methods for treating metabolic disorders” (NuSirt Sciences, Inc., priority 2016, dated 2019).
# Experiments:
# 3T3L1 adipocytes = assay: Fatty acid oxidation (oxygen consumption rate) in 3T3L1 adipocytes; format: cell-based; conditions: for baseline OCR, area under the curve (FIG. 10A): control approximately 6000; for palmitate induced OCR, area under the curve (FIG. 10B): control approximately 52000
# HepG2 liver cells = assay: Lipid accumulation (Oil Red Staining) in HepG2 liver cells induced with high glucose plus insulin; format: cell-based; conditions: 48 hours
# Experimental: Cell Culture: HepG2 liver cells were seeded with 80,000 cells per well on 24-well tissue culture plates in low glucose (5 mM) DMEM containing 10% FBS and antibiotics. After 24 hours of attachment, lipid accumulation was induced by incubating cells with high glucose (25 mM) DMEM (10% FBS, 1% Pen-Strep) plus 100 nM insulin for 48 hours. Cells were then treated with indicated concentrations of Compound 2 for an additional 48 hours.
# (§1) Compound 2 was dissolved in 100% DMSO to a stock concentration of 100 mM. This stock was further diluted to indicated concentrations in DMEM media.
# Lipid accumulation (Oil Red Staining): HepG2 liver cells were seeded and treated as described above. After 48 hours of treatment with Compound 2, lipid accumulation in HepG2 was measured via Oil Red Staining. Cells were washed with phosphate buffered saline (PBS) once, then cells were fixated with 10% formalin for 1 hour. After removal of the formalin, cells were washed with ddH2O twice, then washed with 60% isopropanol. Cells were dried completely. Cells were stained with Oil Red working solution (˜5 mM) for 25 minutes, then immediately washed with ddH2O four times, then dried completely again. Oil Red dye was eluted with 100% isopropanol and absorbance was read at 500 nm. Unstained cells plus isopropanol was used as a blank and subtracted from all readings. Data are represented as mean±SEM for each treatment group.
# AMPK [1] = assay: Western blot, phosphorylated/total AMPK in 3T3L1 adipocytes; format: cell-based; conditions: 48 hours; for ratio of phosphorylated/total AMPK (FIG. 5): control approximately 1.52
# Experimental: 3T3L1 adipocytes were seeded with 200,000 cells per well on 6-well tissue culture plates in Dulbecco's modified eagle's medium (DMEM) containing 10% fetal bovine serum (FBS) and antibiotics (1% penicillin-streptomycin) at 37° C. in 5% CO2. After reaching confluency (3 days), cells were induced to differentiate with a standard differentiation media (DM2-L1, Zen-Bio Inc., NC) for 3 days, then cells were maintained in DMEM (10% FBS, 1% penicillin-streptomycin) for another 11 days to induce lipid accumulation. Cells were then treated with indicated concentration of Compound 2 for 48 hours.
# as §1
# (§2) Western blots: Phospho-AMPK, AMPK, Phospho-ACC, ACC antibodies were obtained from Cell Signaling (Danvers, Mass.). Sir2 antibody was obtained from MyBiosource (San Diego, Calif.). Protein levels of cell extracts were measured by BCA kit (Thermo Scientific, Pittsburgh, Pa.). For Western blot, 10-50 μg protein was resolved on 4-15% gradient polyacrylaminde gels (Criterion precast gel, Bio-Rad Laboratories, Hercules, Calif.), transferred to either PVDF or nitrocellulose membranes, incubated in blocking buffer (3% BSA or 5% non-fat dry milk in TBS) and then incubated with primary antibody (1:1000 dilution), washed and incubated with horseradish peroxidase- or fluorescence-conjugated secondary antibody (1:10000 dilution). Visualization was conducted using BioRad ChemiDoc instrumentation and software (Bio-Rad Laboratories, Hercules, Calif.) and band intensity was assessed using Image Lab 4.0 with correction for background and loading controls.
# AMPK [2] = assay: Western blot, P-AMPK/AMPK in C2C12 muscle cells; format: cell-based; conditions: 4 hours; for ratio of P-AMPK/AMPK (FIG. 6A): control approximately 0.75
# Experimental: Cell Culture: C2C12 muscle cells were seeded with 400,000 cells per well on 6-well tissue culture plates in Dulbecco's modified eagle's medium (DMEM) containing 10% fetal bovine serum (FBS) and antibiotics (1% penicillin-streptomycin) at 37° C. in 5% CO2. After reaching confluency (24 hours), cells were induced to differentiate with DMEM containing 2% Horse Serum for 5 to 6 days until myotubes were fully formed. Cells were then treated with indicated concentration of Compound 2 for 4 and 24 hours.
# as §1, §2
# AMPK [3] = assay: Western blot, P-AMPK/AMPK in C. elegans treated from L1 stage to adulthood; format: in vivo; conditions: for ratio of P-AMPK/AMPK (FIG. 7B): 3 days, control approximately 0.18
# Experimental: (§3) C. elegans culture: Synchronized L1 wild-type worms were transferred to NGM agar plates with the following treatments until adulthood (3 days): 1. control NGM plates, 2. NGM plate with 10 nM Compound 2 added to E. coli suspension, 3. NGM plate with 100 nM Compound 2 added to E. coli suspension.
# as §2
# Sir2 = assay: Western blot, Sir2 protein expression in C. elegans treated from L1 stage to adulthood; format: in vivo; conditions: for Sir2 protein expression, fold change of control (FIG. 7A): 3 days
# Experimental: as §3, §2
# C. elegans = assay: Lipid accumulation (Oil Red Staining) in C. elegans; format: in vivo; conditions: for lipid accumulation, fold change of control (FIG. 12): 3 days, absorbance normalized to worm number
# Experimental: as §3
# Lipid accumulation (Oil Red Staining): Worms were washed off the plate with 2×5 ml PBS and collected in centrifuge tubes. The tubes were centrifuged at 1000 g for 30 seconds, then the supernatant was removed and the worm pellet was washed again with 5 ml PBS. Then the supernatant was discarded except approximately 400 ul, to which 200 ul of 10% paraformaldehyde was added and then gently rocked for 60 minutes at room temperature. To remove the paraformaldehyde, worms were centrifuged at 1500 g for 30 sec, then washed 1× with 5 ml PBS, centrifuged and supernatant removed except 400 ul, to which 600 ul of 100% isopropanol was added and mixed by inverting the tube and incubated for 15 minutes at room temperature. After centrifugation, the isopropanol was removed, then 1 ml of 60% filtered OilRed (4 vol ddH2O and 6 vol of OilRed stock (OilRed stock: dilute 0.35 g OilRed O (Sigma Cat #0-0625, FW 408.5) in 100 ml 100% isopropanol, stirred overnight, then filtered (0.2 um) and stored at room temperature), let stand for 15 to 20 min and filter with 0.2 um) was added. Worms were rotated on shaker overnight at room temperature and protected from light. Next day, the worms were centrifuged at 1200 g for 30 seconds, the dye was removed, and worms were washed 4 times with ddH2O. At last washing step, 2 ml of ddH2O was added and worms were counted under microscope in 3×20 ul drops. The worm number was multiplied by 100 to calculate the total worm number for normalization of the absorbance data. Then worm solution was centrifuged again, supernatant removed and 300 ul of 100% isopropanol was added to elute the OilRed. 100 ul aliquots of OilRed-isopropanol in transferred to 96-well plate and the absorbance was measured at 500 nm.
smiles,measurement,setting,value
CC(C)C[C@@H]1NC(N=C(N)N)=NC1=O [Compound 2],increase of baseline OCR,"3T3L1 adipocytes; 10 nM, 48 hours of treatment",50%
same,increase of palmitate stimulated OCR,"3T3L1 adipocytes; 10 nM, 48 hours of treatment",43%
same,"baseline OCR, area under the curve (FIG. 10A)",3T3L1 adipocytes; 10 nM,approximately 7900 pMoles/min
same,"palmitate induced OCR, area under the curve (FIG. 10B)",3T3L1 adipocytes; 10 nM,approximately 78000 pMoles/min
same,effect on baseline and palmitate stimulated OCR,"3T3L1 adipocytes; 100 nM, compared with 10 nM",smaller effect
same,"baseline OCR, area under the curve (FIG. 10A)",3T3L1 adipocytes; 100 nM,approximately 7000 pMoles/min
same,"palmitate induced OCR, area under the curve (FIG. 10B)",3T3L1 adipocytes; 100 nM,approximately 62000 pMoles/min
same,effect on fat accumulation,"HepG2 liver cells; HepG2, all tested concentrations (1 nM to 10 uM)",significantly reduced
same,reduction of fat accumulation (highest effect),"HepG2 liver cells; HepG2, high glucose (25 mM) DMEM plus 100 nM insulin, 10 nM, p<0.025",up to 40%
same,ratio of phosphorylated/total AMPK (FIG. 5),AMPK [1]; 10 nM,approximately 1.5
same,ratio of phosphorylated/total AMPK (FIG. 5),AMPK [1]; 100 nM,approximately 2.0
same,increase in the ratio of phosphorylated to total AMPK protein expression,"AMPK [1]; 100 nM, p=0.0004",35%
same,effect on the ratio of P-AMPK/AMPK,AMPK [2]; 10 nM,no effect
same,ratio of P-AMPK/AMPK (FIG. 6A),AMPK [2]; 10 nM,approximately 0.65
same,ratio of P-AMPK/AMPK (FIG. 6A),AMPK [2]; 100 nM,approximately 1.35
same,increase in the ratio of P-AMPK/AMPK,"AMPK [2]; 100 nM, p=0.03",78%
same,ratio of P-AMPK/AMPK (FIG. 7B),AMPK [3]; 10 nM,approximately 0.27
same,ratio of P-AMPK/AMPK (FIG. 7B),AMPK [3]; 100 nM,approximately 0.26
same,increase of P-AMPK/AMPK protein expression,"AMPK [3]; L1 stage to adulthood (3 days), p=0.06",approximately 50%
same,"Sir2 protein expression, fold change of control (FIG. 7A)",Sir2; 10 nM,approximately 1.65 fold change
same,"Sir2 protein expression, fold change of control (FIG. 7A)",Sir2; 100 nM,approximately 1.5 fold change
same,increase in Sir2 protein expression,"Sir2; L1 stage to adulthood (3 days), p=0.03",up to 60%
same,"lipid accumulation, fold change of control (FIG. 12)",C. elegans; 10 nM,approximately 0.45 fold change
same,"lipid accumulation, microscopic images (FIG. 13B)",C. elegans; 100 nM,significant reduction
same,"lipid accumulation, fold change of control (FIG. 12)",C. elegans; 100 nM,approximately 0.35 fold change
same,reduction in lipid accumulation,"C. elegans; 100 nM, L1 stage to adulthood (3 days), p<0.05",60%
